Test results published in patent US6358713B1, “In vitro ribosome evolution” (Johns Hopkins University, priority 1999, dated 2002).

Columns and labels:
23S rRNA (2555 loop) = assay: Antibiotic inhibition of crosslinking by s^4TCPm to 23S rRNA; format: binding, E. coli; details: antibiotics 0.1 mM (neomycin 0.01 mM, puromycin 1 mM); limiting [32P]-s^4TCPm
Method: FIGS. 5A and 5B are graphs that indicate antibiotic inhibition of crosslinking by s^4TCPm to 23S rRNA (5A) and of peptidyl transferase activity of crosslinked complex (s^4TCPm-50S) (5B). Values were normalized to 1.0 for reactions where no antibiotics were included.
(§1) Kinetic analysis of crosslinked ribosomal complex: Crosslinked 50S subunits were separated from 30S subunits, gene 32 mRNA, and deacylated tRNA^Phe on 5%-20% sucrose gradients in 10 mM Tris-Cl, pH 7.5, 30 mM NH4Cl, and 1 mM MgCl2, and spun in an SW41 rotor at 19,000 rpm for 16 hours. Excess sucrose was removed and the buffer exchanged to 20 mM Tris, pH 7.5, 100 mM NH4Cl, and 5 mM MgCl2 using Centricon 100 tubes spun at 2600 rpm in an SS34 rotor. Peptidyl transferase assays were done as follows: crosslinked 50S subunit complexes (0.5 μM) were incubated in standard fragment reaction conditions (50 mM Tris, pH 8.3, 0.4 M potassium acetate (KOAc), 60 mM MgCl2, and 33% MeOH) with CACCA-(N-Ac-Phe) (2 μM). Aliquots were removed from the reaction at the indicated times, rRNAs phenol extracted, digested with RNase T1, and the fragments resolved on 24% polyacrylamide/6 M urea gels. […] When incubated with ribosomes at these concentrations, these antibiotics protect specific positions in 16S and 23S rRNA from chemical modification. Antibiotic inhibition of crosslinking was performed using limiting [^32P]-s^4TCPm and a single time point (2 minutes) of exposure to various lengths of time (0, 5, 10, 20, or 40 minutes) to long-wave length (366 nm) UV light (in the linear range of the reaction) under standard conditions. Ribosomal RNAs were phenol extracted and analyzed on a 3.8% polyacrylamide—7 M urea gel. Antibiotic inhibition of PT activity was performed with the fragment P-site substrate, CACCA-(N-Ac-Phe), supplied at a concentration of 0.3 μM; a single linear time point of 4 minutes was used for analysis.
While sparsomycin is known to stabilize P-site substrate binding, it also competes effectively for binding with puromycin in the A site. As sparsomycin is ineffective in the context of a covalently tethered puromycin substrate, but active in preventing the crosslinking of s^4TCPm, it seems likely that its mode of inhibition results primarily from its effect on A-site interactions. Puromycin had no effect on the peptidyl transferase activity of the crosslinked complex, consistent with the high effective concentration of the s^4TCPm substrate covalently bound in the A site. These effects of the various antibiotics on the activity of the 50S subunit-s^4TCPm complex provide further evidence that the synthetic substrate, s^4TCPm, is crosslinked to its physiologically correct binding site.

[1] = system: crosslinked 50S subunit-s^4TCPm complex; assay: Antibiotic inhibition of peptidyl transferase activity of the crosslinked complex (s^4TCPm-50S); format: biochemical, E. coli; details: antibiotics 0.1 mM (neomycin 0.01 mM, puromycin 1 mM); CACCA-(N-Ac-Phe) 0.3 μM, 4 minutes
Method: Kinetic analysis of crosslinked ribosomal complex: Crosslinked 50S subunits were separated from 30S subunits, gene 32 mRNA, and deacylated tRNA^Phe on 5%-20% sucrose gradients in 10 mM Tris-Cl, pH 7.5, 30 mM NH4Cl, and 1 mM MgCl2, and spun in an SW41 rotor at 19,000 rpm for 16 hours. Excess sucrose was removed and the buffer exchanged to 20 mM Tris, pH 7.5, 100 mM NH4Cl, and 5 mM MgCl2 using Centricon 100 tubes spun at 2600 rpm in an SS34 rotor. Peptidyl transferase assays were done as follows: crosslinked 50S subunit complexes (0.5 μM) were incubated in standard fragment reaction conditions (50 mM Tris, pH 8.3, 0.4 M potassium acetate (KOAc), 60 mM MgCl2, and 33% MeOH) with CACCA-(N-Ac-Phe) (2 μM). Aliquots were removed from the reaction at the indicated times, rRNAs phenol extracted, digested with RNase T1, and the fragments resolved on 24% polyacrylamide/6 M urea gels. […] Antibiotic inhibition of PT activity was performed with the fragment P-site substrate, CACCA-(N-Ac-Phe), supplied at a concentration of 0.3 μM; a single linear time point of 4 minutes was used for analysis.

[2] = system: peptidyl transferase A site of the 50S subunit; assay: Kinetic characterization of A-site substrates in the peptidyl transferase fragment reaction; format: biochemical; details: fragment reaction conditions, P-site substrate N-Ac-Met-ACCACC
Method: Synthesis of 4-thio-dT-p-C-p-puromycin 5′-Dimethoxytrityl-Nα-trifluoroacetyl-puromycin was attached to alkylamine-derivatized controlled pore glass via a 2′-succinate linkage by standard methods. See, Atkinson and Smith, Solid Phase Synthesis of Oligodeoxyribonucleotides by the Phosphate-triester Method, in Oligonucleotide Synthesis: A Practical Approach, Oxford: IRL Press, pp. 35-81, 1985. 4-Thio-dT-p-C-p-Puromycin (s^4TCPm) was prepared by standard phosphoramidite chemistry using the solid-phase version of puromycin, and rC and 4-thio-dT phosphoramidites (Glen Research Corporation, Sterling, Va.). Deprotection was performed by treatment with 3:1 NH4OH:MeOH/50 mM NaSH overnight at 55° C. Subsequently, 40 equivalents of 1 M tetrabutylammonium fluoride (TBAF) in tetrahydrofuran (THF) were added to the dried product and incubated overnight at room temperature. Finally, 20 mM triethylamine-acetate (pH. 7.0) was added to the reaction mixture, loaded directly on a C18 HPLC column, and eluted with increasing concentrations of acetonitrile (CH3CN). Multiple peaks were collected and the purity of the products was analyzed on a 20% polyacrylamide/7M urea gel following 5′-[^32P]-end-labelling using polynucleotide kinase. Although two peaks appeared to be relatively pure by this analysis, only the slowest migrating peak on the HPLC had any crosslinking ability. Kinetic characterization of s^4TCPm was performed using the tRNA fragment N-Ac-Met-ACCACC, as a P-site substrate, using fragment reaction conditions, and paper electrophoresis analysis of the resulting product, s^4TCPm-N-Ac-Met, as described by Green and Noller, RNA, 1996, 2:1011-1021. This analysis was complicated by the apparent affinity of the compound for both the A and P sites at high concentrations. The P-site affinity may be attributable to wobble pairing between 4-thio-dT (which mimics C74 of tRNA) and G2252 of 23S rRNA. See, Samaha et al., Nature 1995, 377:309-314. […]

[3] = system: 23S rRNA of E. coli tight-couple 70S ribosomes; assay: UV crosslinking of s^4TCPm to ribosomes; format: binding
Method: (§2) Crosslinking of ribosomes by s^4TCPm: Tight-couple E. coli 70S ribosomes (2 μM) were incubated with 1.2 equivalents (2.4 μM) of gene 32 mRNA and of deacylated CF23 tRNA^Phe in 20 mM Tris, pH 7.5, 30 mM MgCl2, 50 mM NH4Cl, 6 mM 2-mercaptoethanol, and 10% MeOH. Saturating s^4TCPm (20 μM) (or [^32P]-s^4TCPm) was then added and the mixture was incubated at 37° C. for 10 minutes. Crosslinking of s^4TCPm to B. stearothermophilus 70S ribosomes was performed under similar conditions except with 30 mM Tris pH 7.5, 10 mM MgCl2, and 330 mM KCl. Complexes were exposed for varying lengths of time to a hand-held UV light source (UVL-56, Blak-Ray Lamp, UVP, Inc.—366 nm) at a distance of 3 cm. […] Analysis of the amount of substrate crosslinked to the r-proteins was determined as described by Breitmeyer and Noller, J. Mol. Biol., 1976, 101:297-306.
Crosslinking to the peptidyl transferase A site: To target binding of the crosslinking reagent specifically to the peptidyl transferase A site, the P site of E. coli tight-couple 70S ribosomes, programed with a shortened version of bacteriophage T4 gene 32 mRNA, was filled with deacylated tRNA^Phe, followed by binding of radioactively labeled [^32P]-s^4TCPm (FIG. 3B). […] Total RNA was prepared from the UV-irradiated ribosomal complexes by phenol extraction and analyzed on a 3.8% denaturing polyacrylamide gel. […]

[4] = system: B. stearothermophilus 70S ribosomes 23S rRNA; assay: UV crosslinking of s^4TCPm to B. stearothermophilus ribosomes; format: binding; details: compared with E. coli ribosomes
Method: as §2, with “cm. Intact rRNAs were phenol extracted, and resolved on 3.8% polyacrylamide/7 M urea gels.” for “cm.”
The position of the crosslinked A-site substrate was first localized with a series of RNase H digestions to the region between positions 2538 and 2593 of 23S rRNA. Assignment of the site of crosslinking to position G2553 was achieved using primer extension analysis. Because of the impaired ability of reverse transcriptase to read modified bases on the rRNA template, a major cDNA product was obtained terminating one nucleotide 3′ to the modified base. […]

E. coli 50S subunit = assay: Peptidyl transferase reactivity of the crosslinked complex; format: biochemical; details: CACCA-(N-Ac-Phe), fragment reaction conditions
Method: as §1, with “Antibiotic inhibition of crosslinking was performed using limiting [^32P]-s^4TCPm and a single time point (2 minutes) of exposure to various lengths of time (0, 5, 10, 20, or 40 minutes) to long-wave length (366 nm) UV light (in the linear range of the reaction) under standard conditions.” left out, “Antibiotic inhibition of PT activity was performed with the fragment P-site substrate, CACCA-(N-Ac-Phe), supplied at a concentration of 0.3 μM; a single linear time point of 4 minutes was used for analysis.” left out

[5] = system: B. stearothermophilus 50S; assay: Peptidyl transferase reactivity of the crosslinked B. stearothermophilus complex; format: biochemical; details: minimal P-site substrates
Method: as §1, with “Antibiotic inhibition of crosslinking was performed using limiting [^32P]-s^4TCPm and a single time point (2 minutes) of exposure to various lengths of time (0, 5, 10, 20, or 40 minutes) to long-wave length (366 nm) UV light (in the linear range of the reaction) under standard conditions.” left out, “Antibiotic inhibition of PT activity was performed with the fragment P-site substrate, CACCA-(N-Ac-Phe), supplied at a concentration of 0.3 μM; a single linear time point of 4 minutes was used for analysis.” left out

| Molecule | inhibition of crosslinking of s^4TCPm to the 2555 loop of 23S rRNA (23S rRNA (2555 loop)) | inhibition of peptidyl transferase reactivity of the crosslinked complex [1] | Km [2] [µM] | also measured |
| --- | --- | --- | --- | --- |
| CSC[S@+]([O-])C[C@H](CO)NC(=O)/C=C/c1c(C)[nH]c(=O)[nH]c1=O [sparsomycin] | strongly inhibited | no inhibitory effect | – | – |
| 4-thio-dT-p-C-p-Puromycin [s^4TCPm] | – | – | ~10 | crosslinking to ribosomal proteins [3]: absence of significant crosslinking; UV irradiation time at which the crosslinking reaction was complete ([3]; 366 nm UV): 10 min; crosslinking efficiency with B. stearothermophilus ribosomes [4]: similarly efficient; crosslinked population reacted with P-site substrate (E. coli 50S subunit; 2 minutes): approximately 50%; crosslinked population reacted with P-site substrate (E. coli 50S subunit; 12 minutes): 85%; peptidyl transferase kinetics slower than E. coli complex [5]: ca. 10 fold |
| neomycin | no effect | – | – | – |
| CC[C@H]1OC(=O)[C@H](C)[C@@H](O[C@H]2C[C@@](C)(OC)[C@@H](O)[C@H](C)O2)[C@H](C)[C@@H](O[C@@H]2O[C@H](C)C[C@H](N(C)C)[C@H]2O)[C@](C)(O)C[C@@H](C)C(=O)[C@H](C)[C@@H](O)[C@]1(C)O [erythromycin] | no effect | – | – | – |
| COc1ccc(CC(N)C(=O)NC2C(COP(=O)(O)OC3C(CO)OC(n4ccc(N)nc4=O)C3O)OC(n3cnc4c(N(C)C)ncnc43)C2O)cc1 (stereo not shown) [CPm, C-p-Puromycin] | – | – | ~10 | – |
| CO[C@@H]1[C@@H](O[C@@H]2O[C@H](C)[C@@H](O[C@H]3C[C@@](C)(O)[C@@H](OC(=O)CC(C)C)[C@H](C)O3)[C@H](N(C)C)[C@H]2O)[C@@H](CC=O)C[C@@H](C)C(=O)/C=C/[C@@H]2O[C@@H]2C[C@@H](C)OC(=O)C[C@H]1OC(C)=O [carbomycin] | specifically inhibited | effectively inhibited | – | – |
| COc1ccc(C[C@H](N)C(=O)N[C@H]2[C@@H](O)[C@H](n3cnc4c(N(C)C)ncnc43)O[C@@H]2CO)cc1 [puromycin] | specifically inhibited | no effect | ~400 | – |
| O=C(N[C@H](CO)[C@H](O)c1ccc([N+](=O)[O-])cc1)C(Cl)Cl [chloramphenicol] | specifically inhibited | effectively inhibited | – | – |
